# Source: US4853403A, “3-phenylthiomethylstyrene derivative, process for preparing the same, and antiallergic agent and tyrosinekinase inhibiting agent containing the same” (Kanegafuchi Kagaku Kogyo Kabushiki Kaisha, priority 1985, dated 1989)
# Assays:
# [1] = test system: antigen-induced anaphylactic shock death; assay: Protective effect against anaphylactic shock in actively sensitized guinea pigs; assay type: in vivo, guinea pig (male); conditions: Cavia porcellus; 100 mg/kg, oral, 30 minutes before antigen inhalation; survival 90 minutes or more; read-out: Protecting Effect (Number of test animal survivied/Number of test animal) (converted)
# Description: [III] Protective effect against anaphylactic shock in actively sensitized guinea pigs
# Antigen-induced anaphylactic shock death was observed according to John P. Devlin [Pulmonary and Antiallergic Drugs, John Wiley & Sons, 155 (1985)].
# Each 100 mg/kg of ovalbumin dissolved in physiological saline was injected into peritoneal cavity and into gluteus of male guinea pigs weighing 250 to 350 g. 3 Days later, the animals were further injected intraperitoneally with ovalbumin (100 mg/kg). Those animals were employed for testing 3 to 4 weeks after first sensitization. Actively sensitized guinea pigs were pretreated subcutaneously with pyrilamine (1 mg/kg, 30 min.) to suppress histamine-dependent response and with propanolol ([…], 10 min.) to enhance the response induced by other than histamine before the antigen.
# The animal was placed in a desiccator with a capacity of about 5 l and 0.5% aqueous solution of ovalbumin was inhaled with ultrasonic type nebulizer for five minutes. Anaphylactic shock death was observed and the animals survived for 90 minutes or more after antigen were estimated to be protected. The compounds of the present invention and antiasmatic agent were administered orally 30 minutes before the antigen inhalation. The control received vehicle alone similarly.
# [2] = test system: SRS-A biosynthesis or release; assay: SRS-A biosynthesis or release inhibitory activity (ovalbumin-challenged sensitized guinea pig lung fragments, bioassay on guinea pig ileum); assay type: cell-based, guinea pig (male Hartley); conditions: Cavia porcellus, read-out: Inhibition rate (SRS-A biosynthesis or release)
# Description: [I] SRS-A biosynthesis or release inhibitory activity
# SRS-A biosynthesis or release inhibitory activity was examined according to Koda et al. [Nippon yakurigakkaishi, 66, 194(1970)] and Kono-Watanabe et al. [J. Immunology, 125, 946(1980)].
# Male Hartley guinea pigs weighing 350 to 450 g were sensitized by injecting once each 1 ml of an ovalbumin (100 mg/ml) into gluteus and peritoneal cavity. Four weeks after the injection, the animals were killed and then immediately the lung was perfused with cooled Tyrode's solution to remove blood. The lung was chopped into about 2 mm fragments and 500 mg of the fragments were suspended in 4.84 ml of Tyrode's solution, to which 0.01 ml of the test compound dissolved in dimethylsulfoxide (DMSO) was added. After incubation at 37° C. for 10 minutes, 0.15 ml of an ovalbumin (10 mg/ml) was added, followed by incubation at 37° C. for 20 minutes. In control, DMSO was added and the reaction was conducted in the same manner. The reaction mixture was filtered with gauze.
# An amount of SRS-A in the filtrate was bioassayed using guinea pig ileum; i.e. the ileum (length: 2 to 3 cm) was suspended in Magnus tube containing aerated Tyrode's solution at 31° C. and, after the plateau of contraction was obtained, an amount of SRS-A in the above filtrate was bioassayed in the presence of 1 μM of atropine and 1 μM of pyrilamine. Inhibition rate (%) was calculated from a contraction in control as 100.
# [3] = biological target: T1, epidermal growth factor acceptor-tyrosinekinase complex (Homo sapiens, UniProt P00533); assay: Tyrosinekinase inhibitory activity (A-431 membrane specimen, EGF-stimulated, [γ-32P]ATP); assay type: biochemical, human (A-431 cell line derived from human cancerous cell); conditions: read-out: Inhibition rate (tyrosinekinase)
# T1 construct: endogenous in cells; host or cells: A-431 (membrane specimen, not solubilized)
# T1 sequence (P00533 25-1210): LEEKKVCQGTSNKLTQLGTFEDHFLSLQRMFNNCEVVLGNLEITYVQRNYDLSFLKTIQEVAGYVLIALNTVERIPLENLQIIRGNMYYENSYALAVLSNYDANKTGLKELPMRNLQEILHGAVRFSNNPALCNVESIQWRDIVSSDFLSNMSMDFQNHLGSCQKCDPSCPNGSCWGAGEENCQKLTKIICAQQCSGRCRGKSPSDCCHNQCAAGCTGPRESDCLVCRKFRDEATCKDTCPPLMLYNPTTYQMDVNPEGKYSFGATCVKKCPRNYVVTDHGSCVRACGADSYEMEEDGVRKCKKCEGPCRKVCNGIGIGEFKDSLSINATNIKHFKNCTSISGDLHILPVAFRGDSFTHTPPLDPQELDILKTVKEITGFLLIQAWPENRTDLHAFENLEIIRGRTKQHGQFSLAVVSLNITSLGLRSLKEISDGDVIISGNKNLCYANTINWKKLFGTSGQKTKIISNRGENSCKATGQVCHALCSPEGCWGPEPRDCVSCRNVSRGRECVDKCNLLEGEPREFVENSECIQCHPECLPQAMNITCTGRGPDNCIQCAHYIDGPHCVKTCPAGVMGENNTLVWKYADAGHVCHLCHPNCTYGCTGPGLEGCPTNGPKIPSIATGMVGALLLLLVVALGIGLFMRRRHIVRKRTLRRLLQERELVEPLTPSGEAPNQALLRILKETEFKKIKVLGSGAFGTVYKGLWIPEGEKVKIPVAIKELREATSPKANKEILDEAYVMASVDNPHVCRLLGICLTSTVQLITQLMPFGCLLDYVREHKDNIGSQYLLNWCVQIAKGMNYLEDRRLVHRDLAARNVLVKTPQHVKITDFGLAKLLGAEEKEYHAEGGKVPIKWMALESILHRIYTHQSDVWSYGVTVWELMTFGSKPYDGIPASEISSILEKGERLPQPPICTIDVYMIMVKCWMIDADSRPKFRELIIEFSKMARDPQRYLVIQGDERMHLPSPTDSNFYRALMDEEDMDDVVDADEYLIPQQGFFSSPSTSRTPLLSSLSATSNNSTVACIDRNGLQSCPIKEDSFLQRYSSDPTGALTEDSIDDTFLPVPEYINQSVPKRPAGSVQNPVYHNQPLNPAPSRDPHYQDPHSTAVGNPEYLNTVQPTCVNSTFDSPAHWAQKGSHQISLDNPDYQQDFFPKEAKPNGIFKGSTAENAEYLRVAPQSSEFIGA
# T1 sequence (P01132 977-1029 partner limits assumed): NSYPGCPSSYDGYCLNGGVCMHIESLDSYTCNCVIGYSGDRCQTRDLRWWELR
# Description: Tyrosinekinase inhibitory activity of the compound of the present invention was measured by employing a method for measuring tyrosinekinase activity by G. Carpentor or by S. Cohen et al. [J. Biol. Chem., 254, 4884 (1979); J. Biol. Chem., 257, 1523 (1982)].
# Cell line A-431 derived from human cancerous cell was cultured at 37° C. under the condition of 5% CO2 in Dulbecco's modified Eagle medium (made by DAINIPPON PHARMACEUTICAL CO., LTD.) containing 10% fetal bovine serum, 50 μg/ml of streptomycin, 50 IU/ml of penicillin G and 50 μg/ml of canamycin. The obtained cells were treated according to the above Cohen or Graham et al. to give membrane specimen containing epidermal growth factor acceptor-tyrosinekinase complex (hereinafter referred to as "membrane specimen"). The membrane specimen was employed in the following measurement without solubilization.
# Sample dissolved in dimethylsulfoxide was added to a mixture of 20 mM of N-2-hydroxyethylpyperadino-N'-2-ethanesulfonate buffer (pH 7.4), 1 mM of MnCl2, 7.5 μg of bovine serum albumin and the membrane specimen (10 μg as protein). After incubation at 0° C. for 5 minutes, 100 ng of epidermal growth factor (hereinafter referred to as "EGF" was added and the mixture was further incubated at 0° C. for 15 minutes. [γ-^32 P]ATP (3000 Ci/mmol, 0.1 μCi) was added to make final volume of 70 μl. After incubation at 0° C. for 15 minutes, 50 μl of the reaction solution was soaked into Wattman 3 MM filter paper and immediately the reaction was stopped by 10% trichloroacetic acid-10 mM sodium pyrophosphate aqueous solution. The filter paper was sufficiently washed with the same solution and then washed with ethanol and dried. Radioactivity present in the filter paper was measured by liquid scintillation counter (A). Similarly, radioactivity was measured in case of the reaction without EGF (B), the reaction without the sample (C), and the reaction without both EGF and the sample (D) as a control.
# Tyrosinekinase inhibition rate (%) was calculated by the following equation. [formula]
# [4] = test system: homologous passive cutaneous anaphylaxis (PCA); assay: Inhibitory activity against homologous passive cutaneous anaphylaxis (PCA) in rats; assay type: in vivo, rat (male Wistar); conditions: 100 mg/kg, oral, 1 hour before the antigen
# Description: [II]Inhibitory activity against homologous passive cutaneous anaphylaxis (PCA) in rats
# Antiserum was prepared according to I. Mota [Immunology, 7, 681(1964)] and the PCA reaction was conducted according to Maruyama et al. [Nippon yakurigakkaishi, 74, 179(1978)].
# (1) Preparation of antiserum
# An ovalbumin solution (2 mg/ml) was injected intramuscularly into both thighs of male Wistar rats weighing 200 to 260 g in a volume of 0.5 ml/100 g body weight, and pertussis vaccine (Bordetella pertussis, 2×10^10 /ml, Chibaken Kessei Kenkyujo) was intraperitoneally administered at 1 ml/rat. Twelve days later, blood was taken from posterior aorta under ether anesthesia and antiserum was stored at -80° C.
# Group of 4 male Wistar rats weighing 180 to 210 g were employed. Back of the animals was shaved and each 0.05 ml of antiserum (1:32 dilution) was injected intradermally at four sites on the back. After 48 hours, 1 ml of a mixture of ovalbumin (1 mg/ml) and Evans blue (5 mg/ml) was injected intravenously into the tail. 30 Minutes later, the animals were killed under ether anesthesia. The blue-dyed area (mm^2) formed was measured and an inhibition rate(%) was calculated as compared with control.
# Test compound suspended in a 2.5% acacia containing 0.2% Tween 80 was administered orally in a volume of 0.5 ml/100 g body weight 1 hour before the antigen. Tranilast was administered orally 30 minutes before the antigen.
Compound,responders at 100 mg/kg [1] [%],inhibition at 100 µM [2] [%],inhibition at 10 µM [3] [%],inhibition at 100 µM [3] [%],"Inhibition rate (PCA reaction, blue-dyed area) [4] [%]"
CCOc1cc(C=C2CCNC2=O)cc(CSc2ccccc2)c1O [XXVII],75,100,96,100,25
CCOc1cc(C=C2C(=O)NN(c3ccccc3)C2=O)cc(CSc2ccccc2)c1O [XXXI],20,59,92,100,30
